Where a SMILES comes first, the peptide text is derived from it. The star is where a group is joined. Palmitoyl = CCCCCCCCCCCCCCCC(=O)*
Experiments:
[1] = PA fluorescence in liver homogenates; assay type: in vitro ADME; conditions: ICG conjugated, 0.1 to 10 µM spiked into mouse liver homogenate, IVIS
Experimental: Liver samples (6.2 g total weight) collected from healthy BALB/cJ mice were placed in a gentleMACS M Tube containing 2 mL of PBS. The M Tube was fitted with a 600 µm mesh strainer, and homogenization was performed using a gentleMACS Dissociator by running a one‐minute program at 1260 rotations per round (rpr) for five cycles. ICG conjugated SA‐E and SA‐K were then spiked into the liver homogenates in a 96‐well plate at final concentrations of 0, 0.1, 0.5, 2.0, 5.0, and 10 µM. Fluorescence signals from the homogenates were measured using an IVIS (PerkinElmer).

[2] = Stability of PA nanostructures in plasma (fluorescence recovery); assay type: in vitro ADME, human
Experimental: ICG or Cy5 conjugated PAs were dissolved in PBS (10 mM, pH 7.4) at a concentration of 1 or 100 µM, and 90 µL aliquots of these solutions were added to a 96 well plate (4 wells for each PA). Then, 10 µL of pooled human plasma was added to each well, and fluorescence spectra of ICG or Cy5 were recorded using a microplate reader (TECAN Spark 20 M) at different time points.

[3] = system: LPs (HDL, LDL, VLDL) and albumin in pooled human plasma
Experimental: FPLC experiments were performed using SA‐E, SA‐K, or No‐SA conjugated with ICG or SA‐E conjugated with MMAE at a final concentration of 250 µM in filtered PBS (10 mM, pH 7.4) with or without human plasma or purified LPs or albumin. For analysis of SA‐E interactions with purified LPs, VLDL, LDL, HDL, and human serum albumin were diluted in filtered PBS to approximate concentrations found in 10% human plasma: 0.0025, 0.13, 0.05, and 5mg mL^−1, respectively. SA‐E was incubated with the purified LP/protein mixture for 30 min at 37 °C before injection. For analysis of plasma interactions, PAs or No‐SA were incubated in PBS containing 10% pooled human plasma for 30 min at 37 °C before injection. The total volume injected for all samples was 400 µL. All data was collected on an ÄKTA pure chromatography system using the following running conditions: size exclusion chromatography on a Superose 6 Increase 10/300 GL column with a column volume (CV) of 30 mL, pre‐column pressure limit of 5 MPa, delta‐column pressure limit of 2.6 MPa, flow rate of 0.75 mL min^−1, in 100% PBS. The sample running method included first an equilibration step before injection of the sample with 100% PBS for 0.5 CV, followed by sample application via 1 mL capillary loop in 100% PBS, and finished with a linear elution consisting of 2 CV collected in 1 mL fractions. The UV‐Vis detector wavelengths were 250, 280, and 700 nm to detect MMAE, all proteins/LPs, and ICG, respectively.

TRAMP‐C2 tumors = experiment: Tumor accumulation in wild type or SR‐B1‐/‐ tumors; assay type: in vivo, mouse; conditions: 50 nmol IV, 2 days
Experimental: (§1) For tumor accumulation studies in subcutaneous (HCT‐116, A375, TRAMP‐C2, MC38, LLC1, RG2, PDX cell lines, wild type or SR‐B1 ‐/‐ TRAMP‐C2, and wild type or LDL‐R ‐/‐ HeLa), intradermal (A375), or fat pad (4T1 and MCF‐7) tumors, cells were implanted as described above. When the tumors reached a size around ≈0.3–1 cm, mice were injected intravenously with 100 µL of ICG conjugated PAs (in PBS, 0.5 mM) or free ICG (in PBS, 0.5 mM). After probe injections, mice were imaged using the IVIS Spectrum (PerkinElmer) with excitation and emission wavelengths of 745 and 820 nm, respectively, at the specified time points. Living Image (PerkinElmer) software was used for all analyses. For MMTV mice experiments, mice were injected intravenously weekly with SA‐E (100 µL PBS, 0.5 mM) between 71 and 85 days of age and imaged 2 days later in the IVIS. […] SA‐E was injected intravenously (100 µL PBS, 0.5 mM), 2 days later the intestinal tissue was harvested, washed, and analyzed in the IVIS for ICG.

[4] = system: small intestinal adenomas and colon polyps; experiment: Detection of intestinal lesions in APC^min mice; assay type: in vivo, mouse
Experimental: as §1

[5] = TEM imaging of PA nanostructures; assay type: physicochemical; conditions: ICG conjugated PA, 200 µM in ultrapure water, uranyl acetate negative stain
Experimental: For TEM imaging, PAs conjugated with ICG, Cy5 or MMAE were dissolved in ultrapure water at a concentration of 200 µM. Carbonfilm 200 copper mesh TEM grids were glow‐discharged first. Then, PA solutions (15 µL) were placed on the grids, incubated for 10 min before blotting, and air‐dried. 15 µL of ultrapure water was applied to wash the grid for 3 min. After incubation, the water was removed by blotting from the edge of the grid. For negative staining of the samples, a 0.4% uranyl acetate solution was prepared in ultrapure water and filtered using a 0.1 µm syringe filter. 15 µL of filtered uranyl acetate solution was applied to the grid and incubated for 5 min. Finally, TEM grids were blotted to remove excess stain and dried at room temperature. TEM imaging was performed using a Tecnai or Talos microscope (FEI).

RG2 xenografts = experiment: Flow cytometry of mCherry expressing RG2 xenografts; assay type: in vivo, mouse; conditions: Cy5 SA‐E 50 nmol IV
Experimental: RG2‐mCherry cells (100 µL sterile DMEM, 0.5 × 10^7 cells mL^−1) were implanted subcutaneously in nude mice and allowed to grow to 0.5–1 cm. Mice were then injected intravenously with the Cy5 labeled SA‐E (100 µL, 0.5 mM). 2 days later, tumors were extracted, minced, and dissociated using 1 mg mL^−1 solution collagenase/dispase (Roche, 10269638001 and 11097113001) for 45 min at 37 °C. The solution was broken down with pipetting and filtered through a 70 µm filter. The single‐cell solution was suspended in sterile PBS (10 mM, pH 7.4) and then incubated with 1:50 dilution of AlexaFluor 488 Rat Anti‐Mouse CD45 antibody (BD Pharminogen, 567377) for 45 min at room temperature. Finally, the cells were pelleted and, washed and incubated with 5 µM Calcein Blue, AM (Invitrogen, C1429) for 20 min. The cells were then analyzed in BD FACSymphony in the DAPI channel (355 nm laser, 450/50 filter), FITC channel (488 nm laser, 515/30 filter), Cy3 channel (561 nm laser, 586/15 filter), and Cy5 channel (628 nm laser, 670/30 filter). Cells in culture were used to establish size and mCherry intensity. […] Finally, three experimental mice were analyzed in all channels using the gating established from the controls. Gating was performed in FlowJo software.

[6] = system: TRAMP‐C2 mouse prostate cancer cells; experiment: Uptake of SA‐E by wild type or SR‐B1 knockout cells; assay type: cell-based; conditions: Cy5 SA‐E 20 µM, 10% FBS DMEM
Experimental: For SR‐B1 studies, an equal number of wells in a black walled, glass bottom 96‐well plate were seeded with either wild type or SR‐B1‐/‐ TRAMP‐C2 cells and grown to near confluency, as above. The Cy5 conjugated SA‐E was diluted in 10% FBS containing DMEM and incubated at room temperature for 30 min. All media from the wells was aspirated. Four wells of each cell type received 100 µL aliquots with SA‐E (20 µM). The plate was incubated for 30 min, as above. Following the methods above, wells were washed with PBS, media was added, and the plate was returned to the incubator for 1 h. Finally, Hoechst staining and fluorescence imaging were performed using a Leica Thunder DMi8 fluorescent microscope, as described above.

CCCCCCCCCCCCCCCC(=O)NCC(=O)NCC(=O)NCC(=O)N[C@@H](Cc1c[nH]cn1)C(=O)N[C@@H](C)C(=O)N[C@@H](C)C(=O)N[C@@H](CC(N)=O)C(=O)NCC(=O)N[C@@H](CCC(=O)O)C(=O)N[C@@H](CCC(=O)O)C(=O)N[C@@H](CS)C(=O)N[C@@H](CCC(=O)O)C(=O)O [SA‐E] (Palmitoyl-GGGHAANGEECE-OH)
fluorescence in liver homogenates, SA‐E versus SA‐K (disassembly) [1]: almost identical fluorescence intensity
increase in Cy5 fluorescence in plasma relative to SA‐K ([2]; Cy5 conjugated PAs 100 µM, 10% human plasma, 1 h): ≈ 10 fold
increase in ICG fluorescence in plasma relative to SA‐K (micelle disassembly) ([2]; ICG conjugated PAs 1 or 100 µM in PBS pH 7.4 with 10% pooled human plasma, over 2 h, plate reader, larger and more rapid than SA‐K): approximately three‐fold
amount bound to albumin, lower than bound to HDL [3]: approximately two‐fold
tumor accumulation, SR‐B1 knockout versus wild type tumors (TRAMP‐C2 tumors): not needed for tumor accumulation
colon polyps detected ([4]; 3 APC^min mice): 4/4
small intestinal adenomas detected ([4]; 3 APC^min mice): 71/71
Colon, SA-E Negative lesions ([4]; mouse 1, of 2 lesions): 0
Colon, SA-E Positive lesions ([4]; mouse 1, of 2 lesions): 2
Small Intestine, SA-E Negative lesions ([4]; mouse 1, of 15 lesions): 0
Small Intestine, SA-E Positive lesions ([4]; mouse 1, of 15 lesions): 15
Colon, SA-E Negative lesions ([4]; mouse 2, of 1 lesion): 0
Colon, SA-E Positive lesions ([4]; mouse 2, of 1 lesion): 1
Small Intestine, SA-E Negative lesions ([4]; mouse 2, of 22 lesions): 0
Small Intestine, SA-E Positive lesions ([4]; mouse 2, of 22 lesions): 22
Colon, SA-E Negative lesions ([4]; mouse 3, of 1 lesion): 0
Colon, SA-E Positive lesions ([4]; mouse 3, of 1 lesion): 1
Small Intestine, SA-E Negative lesions ([4]; mouse 3, of 34 lesions): 0
Small Intestine, SA-E Positive lesions ([4]; mouse 3, of 34 lesions): 34
size of spherical micelles (TEM) [5]: 5–10 nm
CD45 and mCherry negative cells (tumor stroma) containing Cy5 (RG2 xenografts; 2 days): 35%–40
CD45 positive only (white blood cells) containing Cy5 (RG2 xenografts; 2 days): 35%–40
enrichment in cancer cells compared to other cells in the tumor (RG2 xenografts; 2 days): approximately two‐fold
mCherry expressing cancer cells containing Cy5 (RG2 xenografts; tumors harvested 2 days later, three mice): ≈ 70%
uptake in SR‐B1‐/‐ cells compared to wild type [6]: did not observe any significant change

— paper PMC12801355, “Peptide Amphiphiles Hitchhike on Endogenous Biomolecules for Enhanced Cancer Imaging and Therapy” (Advanced Materials (Deerfield Beach, Fla.), 2025)
